The subject of test [1] is alkaline phosphatase (ALP). Put plainly: cells. The note with it: Mus musculus, C2C12, 96 h.
The subject of test [2] is alkaline phosphatase (ALP). The note with it: 154-analog library, 10 μM, C2C12, duplicate.

Turning to `CCC(C)Sc1ccc(-c2[nH]cnc2-c2ccccc2)cn1` (stereo not shown) [RU-0424478], in test [1], the activation at 10 µM stood at 2.79%. Moreover, the “RFU Score (10 μM)” value in test [2] is reported as 361.

`CCN(CCN(C)C)C(=O)c1cccc(-c2[nH]cnc2-c2ccccc2)c1` [RU-0424479]: in test [1], the activation at 10 µM turned out to be 8.57%. Further, the “RFU Score (10 μM)” value in test [2] was determined as 525.

`CC(C)(O)C#Cc1ccc(-c2[nH]cnc2-c2ccccc2)cc1` [RU-0424480] displayed an activation at 10 µM in test [1] of 10.4%. In test [2], the “RFU Score (10 μM)” value was 575.

In test [1], `O=C(O)Cc1cc(C2CCN(C(=O)c3[nH]cnc3-c3ccccc3)CC2)[nH]n1` [RU-0424481] yielded an activation at 10 µM of 8.62%. Also, in test [2], the “RFU Score (10 μM)” value amounted to 526.

Take `COc1cccc(-c2[nH]cnc2-c2ccccc2)c1OCCCn1ccnc1` [RU-0424482]: the activation at 10 µM in test [1] came out at 10.1%. In addition, the “RFU Score (10 μM)” value in test [2] worked out at 567.

In test [1], `CO[C@@H]1CCOC[C@H]1NC(=O)c1[nH]cnc1-c1ccccc1` [RU-0424483] registered an activation at 10 µM of 7.37%. For the same compound, the “RFU Score (10 μM)” value in test [2] is listed as 491.

`Cc1nc(C2CCCN(C(=O)c3[nH]cnc3-c3ccccc3)C2)no1` (stereo not shown) [RU-0424484] had an activation at 10 µM in test [1] of 1.72%. The “RFU Score (10 μM)” value in test [2] came out at 330.

As to `CCc1cn[nH]c1C1CCN(C(=O)c2[nH]cnc2-c2ccccc2)CC1` [RU-0424485], in test [1], the activation at 10 µM was determined as 8.24%. The “RFU Score (10 μM)” value in test [2] was found to be 515.

As to `O=C(O)C1CN(C(=O)c2[nH]cnc2-c2ccccc2)CCN1` (stereo not shown) [RU-0424486], the activation at 10 µM in test [1] is 5.51%. Moreover, the “RFU Score (10 μM)” value in test [2] was 438.

Compound `Cc1cc(C)c2[nH]c(=O)c(CN(Cc3cccnc3)C3CC3)cc2c1` [RU-0424487] came in with an activation at 10 µM in test [1] of 7.72%. The “RFU Score (10 μM)” value in test [2] was found to be 501.

`Cc1cc(C)c2[nH]c(=O)c(CN3CCc4[nH]cnc4C3C(=O)O)cc2c1` (stereo not shown) [RU-0424488]: in test [1], the activation at 10 µM amounted to 6.37%. Besides, in test [2], the “RFU Score (10 μM)” value is given as 462.

Turning to `O=C(c1[nH]cnc1-c1ccccc1)N1CCC(Cc2cccnc2)CC1` [RU-0424489], the activation at 10 µM in test [1] turned out to be 9.48%. Further, in test [2], the “RFU Score (10 μM)” value came out at 551.

`O=C(N[C@H]1CC[C@H]1NC1CCOCC1)c1[nH]cnc1-c1ccccc1` [RU-0424490] showed an activation at 10 µM in test [1] of 5.91%. The “RFU Score (10 μM)” value in test [2] was determined as 449.

In turn, `Cc1cc(C)c2[nH]c(=O)c(CN3C[C@@H]4CCN(C)[C@@H]4C3)cc2c1` [RU-0424491] yielded an activation at 10 µM in test [1] of 7.63%. Further, the “RFU Score (10 μM)” value in test [2] came to 498.

`Cc1cc(C)c2[nH]c(=O)c(-c3nccn3CCSc3cnn[nH]3)cc2c1` [RU-0424492] showed an activation at 10 µM in test [1] of 6.11%. In test [2], the “RFU Score (10 μM)” value was 455.

For `CC1(C#N)CCN(C(=O)c2ccc(-c3[nH]cnc3-c3ccccc3)cc2)CC1` [RU-0424493], in test [1], the activation at 10 µM amounted to 9.53%. The “RFU Score (10 μM)” value in test [2] was found to be 551.

`COCC1(N(C)C(=O)c2ccc(-c3[nH]cnc3-c3ccccc3)cc2)CC1` [RU-0424494] had an activation at 10 µM in test [1] of 7.74%. Further, the “RFU Score (10 μM)” value in test [2] is recorded as 501.

Regarding `Cc1cc(C)c2[nH]c(=O)c(CN3[C@@H]4CC[C@H]3C[C@@H](O)C4)cc2c1` [RU-0424495], the activation at 10 µM in test [1] was found to be 7.21%. Moreover, the “RFU Score (10 μM)” value in test [2] is recorded as 486.

The compound `Cc1ccnc(CC(C)N(C)Cc2cc3cc(C)cc(C)c3[nH]c2=O)c1` (stereo not shown) [RU-0424496] returned an activation at 10 µM in test [1] of 8.27%. Moreover, the “RFU Score (10 μM)” value in test [2] turned out to be 516.

Take `O=C(O)CNc1cc(-c2[nH]cnc2-c2ccccc2)c2cc[nH]c2n1` [RU-0424497]: in test [1], the activation at 10 µM was found to be 5.93%. In addition, in test [2], the “RFU Score (10 μM)” value was 450.

Compound `Cc1cc(C)c2[nH]c(=O)c(CN(C)CCn3ccnc3C)cc2c1` [RU-0424498] registered an activation at 10 µM in test [1] of 7.21%. Further, in test [2], the “RFU Score (10 μM)” value was 486.

In test [1], `Cc1cc(C)c2[nH]c(=O)c(CN3CC(c4ccccn4)C3)cc2c1` [RU-0424499] had an activation at 10 µM of 7.62%. For the same compound, in test [2], the “RFU Score (10 μM)” value is 498.

`Cc1cc(C)c2[nH]c(=O)c(CN3CCC(O)(CN(C)C)C3)cc2c1` (stereo not shown) [RU-0424500] came in with an activation at 10 µM in test [1] of 8.52%. Further, the “RFU Score (10 μM)” value in test [2] was 523.

`Cc1cc(C)c2[nH]c(=O)c(CN3C[C@H](O)C[C@H]3C(=O)O)cc2c1` [RU-0424501] registered an activation at 10 µM in test [1] of 7.25%. For the same compound, in test [2], the “RFU Score (10 μM)” value is 487.

`COCCCN1CCN(Cc2cc3cc(C)cc(C)c3[nH]c2=O)CC1` [RU-0424502] came in with an activation at 10 µM in test [1] of 7.78%. Further, in test [2], the “RFU Score (10 μM)” value was 502.

In test [1], `CO[C@@H]1CC[C@@]2(OC)CCN(C(=O)c3[nH]cnc3-c3ccccc3)[C@H]2C1` [RU-0424503] registered an activation at 10 µM of 5.45%. For the same compound, in test [2], the “RFU Score (10 μM)” value was determined as 436.

Take `N#Cc1ccccc1-c1ccc(-c2[nH]cnc2-c2ccccc2)o1` [RU-0424504]: the activation at 10 µM in test [1] worked out at 0.96%. Also, the “RFU Score (10 μM)” value in test [2] was determined as 309.

In the case of `O=C(c1[nH]cnc1-c1ccccc1)N1CCc2onc(-c3cccc(F)c3)c2C1` [RU-0424505], in test [1], the activation at 10 µM amounted to 1.56%. In test [2], the “RFU Score (10 μM)” value is recorded as 326.

The compound `Cc1cc(C)c2[nH]c(=O)c(CN3CCCC(N(C)C)CC3)cc2c1` (stereo not shown) [RU-0424506] returned an activation at 10 µM in test [1] of 2.9%. Further, in test [2], the “RFU Score (10 μM)” value turned out to be 364.

In test [1], `O=C(c1[nH]cnc1-c1ccccc1)N1CCC2(CCCO2)CC1` [RU-0424507] displayed an activation at 10 µM of 2.99%. In test [2], the “RFU Score (10 μM)” value is listed as 366.

For `Cc1cc(C)c2[nH]c(=O)c(CN(C)C(C)C(=O)N(C)C)cc2c1` (stereo not shown) [RU-0424508], the activation at 10 µM in test [1] came out at 7.85%. In addition, the “RFU Score (10 μM)” value in test [2] was determined as 504.

On to `Cc1cc(C)c2[nH]c(=O)c(CN(C)CCCn3cccn3)cc2c1` [RU-0424509], for which the activation at 10 µM in test [1] stood at 7.19%. For the same compound, the “RFU Score (10 μM)” value in test [2] was 486.

In test [1], `Cc1cc(C)c2[nH]c(=O)c(CN(C)Cc3cnccn3)cc2c1` [RU-0424510] had an activation at 10 µM of 7.14%. Further, in test [2], the “RFU Score (10 μM)” value was found to be 484.

In test [1], `Nc1nnc(C2CCN(C(=O)c3[nH]cnc3-c3ccccc3)CC2)[nH]1` [RU-0424511] came in with an activation at 10 µM of 6.54%. Further, the “RFU Score (10 μM)” value in test [2] is 467.

Turning to `O=C(c1[nH]cnc1-c1ccccc1)N1CCOC(C(F)(F)F)C1` (stereo not shown) [RU-0424512], the activation at 10 µM in test [1] is 6.12%. Also, the “RFU Score (10 μM)” value in test [2] is recorded as 455.

Take `CO[C@@]12CC[C@H](O)C[C@@H]1N(C(=O)c1[nH]cnc1-c1ccccc1)CC2` [RU-0424513]: the activation at 10 µM in test [1] turned out to be 5.42%. Besides, in test [2], the “RFU Score (10 μM)” value is 435.

In the case of `CCCn1cc(NC(=O)Cn2cc(-c3[nH]cnc3-c3ccccc3)cn2)nn1` [RU-0424514], the activation at 10 µM in test [1] is 3.69%. The “RFU Score (10 μM)” value in test [2] came out at 386.

`Cc1cc(C)c2[nH]c(=O)c(CN(C)CCc3cnn(C)c3)cc2c1` [RU-0424515]: in test [1], the activation at 10 µM worked out at 1.16%. For the same compound, the “RFU Score (10 μM)” value in test [2] stood at 314.

Regarding `O=C(c1[nH]cnc1-c1ccccc1)N1CCCC(c2ccncn2)C1` (stereo not shown) [RU-0424516], the activation at 10 µM in test [1] was determined as 3.89%. Moreover, the “RFU Score (10 μM)” value in test [2] is listed as 392.

Consider `CNC(=O)[C@@H]1C[C@H](N)CN1Cc1cc2cc(C)cc(C)c2[nH]c1=O` [RU-0424517], for which, in test [1], the activation at 10 µM came out at 8.64%. For the same compound, the “RFU Score (10 μM)” value in test [2] was found to be 527.

As for `Cc1cc(C)c2[nH]c(=O)c(-c3nccn3Cc3ccco3)cc2c1` [RU-0424518], the activation at 10 µM in test [1] was 7.14%. The “RFU Score (10 μM)” value in test [2] was determined as 484.

For the origin of these results see US11478466B2, “Small molecule promoting osteoblast differentiation” (Cornell University, priority 2019, dated 2022).
